From patent US20240003879A1, “METHODS FOR DIAGNOSIS AND MONITORING OF TOXIC EPIDERMAL NECROLYSIS” (INSERM (INSTITUT NATIONAL DE LA SANTÉ ET DE LA RECHERCHE …, priority 2020, published 2024)
Entries after “also recorded” stand apart in the source; their conditions may differ. Where two headings read alike, the source gives them in different places.

Columns and labels:
[1] = test system: Skw3 control transductant 17D (Abacavir-allergic donor); assay: TCR-transductant stimulation assay, control transductant 17D; format: cell-based, human; settings: control 17D, 24 h, heterologous EBV-transformed B cells, no drug 1.4
Text: Skw3 cell lines (Leibniz Institute DSMZ, Brunswick, Germany, (50)) were transduced as described previously (51). […] The resulting retroviruses were used to transduce the TCR-defective Skw3 cell line, which also expresses the human CD8 coreceptor. The TCR-transduced cells outgrowing in selective medium were picked, and the expression of the correct TCR α and β was further assessed by flow cytometry, using a FACS-Canto-I device (BD-Biosciences, San Jose, CA, USA). The transduced cells with stable TCR expression were selected for assessment of reactivity and specificity, which was measured by TCR-induced CD69 expression. Skw3 cell lines expressing the cognate TCR α and β chains were cocultured with autologous EBV-transformed B-lymphoblastoid cell lines (52) at 1:2 ratio at 37° C. Tested drugs were added to the cocultures with the indicated concentrations. After 24 h, cells were stained with anti-human CD3 (Biolegend) and anti-human CD69 (Biolegend) and analysed by flow cytometry. […] Experiments were repeated at least 2 times. […] Heterologous EBV-transformed B cells were also used to stimulate control transductants.

[2] = test system: TCRαβ Skw3 transfectant C1 (TCR of top clone of patient TEN-3); format: cell-based, human; settings: 24 h with autologous EBV-transformed B cells, no drug 2.3; for % of CD69 expression in CD3+ transfectants, Concentration 2: Allopurinol/Oxypurinol 62.5 μg/ml, Sulfamethoxazole 100 μg/ml; for % of CD69 expression in CD3+ transfectants, Concentration 3: Allopurinol/Oxypurinol 250 μg/ml, Sulfamethoxazole 200 μg/ml
Text: (§1) In brief, rearranged human variable TCR α- and β genes identified by TCR sequencing were synthesized by custom gene synthesis (GeneUniversal, Newark, Delaware, USA) and cloned into retroviral pMSCV Vector (Takara Bio USA Inc, Mountain View, California, USA) containing puromycin and neomycin resistance genes respectively.
(§2) Levels of CD69 expression were monitored in 10,000 CD3^+ events. Experiments were repeated at least 2 times.
(§3) Skw3 cell lines engineered for the expression of TCRs bearing Vα and Vβ chains from top clones found in patients TEN-3,-7,-10 and -15 were stimulated in vitro with EBV-transformed B cells in presence of graded doses of different drugs, or left unpulsed. […] Results from control transductants generated from Abacavir- (17D), Allopurinol-(AnWeAl) or Sulfamethoxazole- (UNO H13) allergic donors (53) (51) (7) are also shown. Bold and underlined values indicate >2 or >1.5 CD69 expression fold increase versus unpulsed cultures.

[3] = test system: Skw3 control transductant AnWe A1 (Allopurinol-allergic donor); assay: TCR-transductant stimulation assay, control transductant AnWe A1; format: cell-based, human; settings: 24 h, heterologous EBV-transformed B cells, no drug 4.3; for % of CD69 expression in CD3+ transfectants, Concentration 2: Allopurinol/Oxypurinol 62.5 μg/ml; for % of CD69 expression in CD3+ transfectants, Concentration 3: Allopurinol/Oxypurinol 250 μg/ml
Text: as §1, §2, §3

[4] = test system: TCRαβ Skw3 transfectant C4 (TCR of top clone of patient TEN-15); format: cell-based, human; settings: for % of CD69 expression in CD3+ transfectants, Concentration 1 / % of CD69 expression in CD3+ transfectants, Concentration 2 / % of CD69 expression in CD3+ transfectants, Concentration 3: transfectant C4, 24 h; for % of CD69 expression in CD3+ transfectants, Concentration 1: Levofloxacin (no drug 6.0) / Metronidazole (no drug 6.3) 25 μg/ml; for % of CD69 expression in CD3+ transfectants, Concentration 2: Levofloxacin (no drug 6.0) / Metronidazole (no drug 6.3) 50 μg/ml; for % of CD69 expression in CD3+ transfectants, Concentration 3: Levofloxacin (no drug 6.0) / Metronidazole (no drug 6.3) 100 μg/ml; for CD69 expression response of transduced Skw3 cells to drug (in words): transductant from patient TEN-15
Text: Skw3 cell lines (Leibniz Institute DSMZ, Brunswick, Germany, (50)) were transduced as described previously (51). […] The resulting retroviruses were used to transduce the TCR-defective Skw3 cell line, which also expresses the human CD8 coreceptor. The TCR-transduced cells outgrowing in selective medium were picked, and the expression of the correct TCR α and β was further assessed by flow cytometry, using a FACS-Canto-I device (BD-Biosciences, San Jose, CA, USA). The transduced cells with stable TCR expression were selected for assessment of reactivity and specificity, which was measured by TCR-induced CD69 expression. Skw3 cell lines expressing the cognate TCR α and β chains were cocultured with autologous EBV-transformed B-lymphoblastoid cell lines (52) at 1:2 ratio at 37° C. Tested drugs were added to the cocultures with the indicated concentrations. After 24 h, cells were stained with anti-human CD3 (Biolegend) and anti-human CD69 (Biolegend) and analysed by flow cytometry. […] Experiments were repeated at least 2 times. […] Then, the productive rearranged TCRα and TCRβ chains were transduced into Skw3 cells, a TCR defective lymphoma line (28) (data not shown). After verification of sustained and stable TCR expression (data not shown), transduced Skw3 cells were stimulated with the culprit (or control) drug in presence of autologous Epstein Barr Virus (EBV)-transformed B cells generated from patient's PBMCs. The following day, we measured CD69 expression at the surface of Skw3 cells, as marker for TCR stimulation. […] Heterologous EBV-transformed B cells were also used to stimulate control transductants.

human CD38+CD8+ T cells = assay: Model of graft versus host versus disease (GVHD): NGS mice reconstituted with PBMCs from a healthy donor; format: in vivo, mouse
Text: NGS mice were reconstituted with 10×10^6 PBMCs from a healthy donor, and treated by two-weekly injections of an anti-CD38+ mAb (Daratumumab, at 100 or 300 microg/mouse). Control group received PBS. Results depict the percentage +/−SD of CD38+ fraction among human CD8+ T cells present in the spleen, as evaluated by flow cytometry 28 days after PBMCs injection.
NGS mice were reconstituted with 10×10^6 PBMCs from a healthy donor, and treated by two-weekly injections of an anti-CD38+ mAb (Daratumumab, at 100 or 300 microg/mouse). Control group received PBS. The percentage of humanization was measured by flow cytometry at day 5 and at day 12 after PBMC injection. It was calculated by dividing the percentage of human blood CD45+ cells/the percentage of total (mouse+human) blood CD45+ cells.
To this end, NGS mice were reconstituted with 10×10^6 peripheral blood mononuclear cells (PBMCs) from a healthy donor, and treated by two-weekly injections of daratumumab (at 100 or 300 microg/mouse). Control group received PBS. Reconstitution is generally assessed by measuring the ratio of humanization (calculated by dividing the % of human blood CD45+ cells/the % of […]). A high ratio of humanization (>50-60%) classically correlates with the appearance of GVHD symptoms, approximately 1 month after transfer.

[5] = test system: cytotoxic CD8+CD38+ T cells; assay: TEN preclinical model: NSG mice transferred with PBMCs from a TEN patient and given lamotrigine; daratumumab evaluation; format: in vivo, mouse; settings: for depletion of already expanded CD38+ cells (CD8+CD38+ T cells) / depletion of cytotoxic CD8+CD38+Granzyme B+Granulysin+ T cell subset: curative mode: injections from day 29; for depletion of already expanded CD38+ cells (CD8+CD38+ T cells): blood (FIG. 16); for depletion of cytotoxic CD8+CD38+Granzyme B+Granulysin+ T cell subset: blood (FIG. 17); for formation/expansion of cytotoxic CD8+CD38+Granzyme B+Granulysin+ T cell subset: blood (FIG. 15A); for formation/expansion of CD4+CD38+ and CD8+CD38+ T cells: preventive mode: i.p. 200 mg twice weekly from day 4, blood and spleen, throughout the protocol, versus control isotype (FIG. 13); for depletion of cytotoxic cells expressing the TCRVbeta7.1+ chain (CD8+Vbeta7.1+ T cells): spleen at day 31, versus isotype-treated controls (FIG. 12)
Experimental: (§4) NSG animals were adoptively transferred at day 0 with 1.10^6 millions PBMCs collected from a TEN patient, and successively administrated with lamotrigine (the culprit drug; every day, from day 4. In parallel, NSG mice were injected i.p. with […] of daratumumab or a control isotype twice weekly, starting mAb injections from day 4 (preventive mode). Results depict the kinetic of human CD8+Vbeta7.1+ T cell expansion measured by flow cytometry in the spleen of NSG mice at day 31. Results are expressed as mean and individual % of Vbeta7.1+ cell fraction among total CD8+ T cells. Ten mice per group were used in this experiment. Of note, 3.2% of Vbeta7.1+ cells were detected in CD8+ T cells at the time of cell transfer (day 0).
as §4, with “CD4+CD38+/− and CD8+CD38+/−” for “CD8+Vbeta7.1+”, “blood” for “spleen”, “throughout the protocol.” for “at day 31.”, “number” for “%”, “CD38+(A) and CD38− (B) cells/mL blood.” for “Vbeta7.1+ cell fraction among total CD8+ T cells.”, “experiment.” for “experiment. Of note, 3.2% of Vbeta7.1+ cells were detected in CD8+ T cells at the time of cell transfer (day 0).”
(§5) NSG animals were adoptively transferred at day 0 with 1.10^6 millions PBMCs collected from a TEN patient, and successively administrated with lamotrigine (the culprit drug; or vehicle by oral gavage, every day, from day 4. In parallel, NSG mice were injected i.p. with […] of daratumumab or a control isotype twice weekly, starting mAb injections from day 4 (preventive mode). Results depict the kinetic of human CD4+ and CD8+ T cell expansion measured by flow cytometry in the blood of NSG mice throughout the protocol. Results are expressed as mean and individual number of CD4+ and CD8+ T cells/mL blood. Ten mice per group were used in this experiment.
as §5, with “drug; 0.1 mg/kg/day),” for “drug; or vehicle by oral gavage,”, “human cytotoxic CD8+CD38+/−GranzymeB+Granulysin+” for “human CD4+ and CD8+”, “of CD8+CD38+GranzymeB+Granulysin+” for “of CD4+”, “and CD8+CD38+GranzymeB+Granulysin+ cells/mL blood (A). Details for total CD8+GranzymeB+Granulysin+” for “and CD8+”, “T cells are also shown (B).” for “T cells/mL blood.”
NSG animals were adoptively transferred at day 0 with 1.10^6 millions PBMCs collected from a TEN patient, and successively administrated with lamotrigine (the culprit drug; every day, from day 4. In parallel, NSG mice were injected i.p. with […] of daratumumab or a control isotype twice weekly, starting mAb treatment from day 4 (preventive mode) or from day 29 (curative mode). Results depict the kinetic of human CD8+CD38+/− T cell expansion measured by flow cytometry in the blood of NSG mice throughout the protocol. Results are expressed as mean and individual % of CD38+ and CD38− fractions among total CD8+ T cells. Five mice per group were used in this experiment. […]

[6] = 300 microg/mouse, 2 times a week

Nc1nc(NC2CC2)c2ncn([C@H]3C=C[C@@H](CO)C3)c2n1 [Abacavir]
% of CD69 expression in CD3+ transfectants, Concentration 1 ([1]; Abacavir 1 μg/ml, Pantoprazole 12.5 μg/ml): 93.2% | % of CD69 expression in CD3+ transfectants, Concentration 2 ([1]; Abacavir 10 μg/ml, Pantoprazole 25 μg/ml): 88.9% | % of CD69 expression in CD3+ transfectants, Concentration 3 ([1]; Abacavir 20 μg/ml, Pantoprazole 50 μg/ml): 93.1%

Oc1ncnc2[nH]ncc12 [Allopurinol]
% of CD69 expression in CD3+ transfectants, Concentration 2 [2]: 2.2% | % of CD69 expression in CD3+ transfectants, Concentration 3 [2]: 3.05% | % of CD69 expression in CD3+ transfectants, Concentration 2 [3]: 17.1% | % of CD69 expression in CD3+ transfectants, Concentration 3 [3]: 26.4%

C[C@H]1COc2c(N3CCN(C)CC3)c(F)cc3c(=O)c(C(=O)O)cn1c23 [Levofloxacin]
% of CD69 expression in CD3+ transfectants, Concentration 1 [4]: 5.6% | % of CD69 expression in CD3+ transfectants, Concentration 2 [4]: 5.4% | % of CD69 expression in CD3+ transfectants, Concentration 3 [4]: 4.4%

Cc1ncc([N+](=O)[O-])n1CCO [Metronidazole]
CD69 expression response of transduced Skw3 cells to drug (in words) [4]: failed to respond | CD69 expression response of transduced Skw3 cells to drug (in words) ([4]; listed as metronidazole): failed to detect robust CD69+ expression | % of CD69 expression in CD3+ transfectants, Concentration 1 [4]: 5.7% | % of CD69 expression in CD3+ transfectants, Concentration 2 [4]: 5.4% | % of CD69 expression in CD3+ transfectants, Concentration 3 [4]: 6.0%

O=c1[nH]c(=O)c2c[nH]nc2[nH]1 [Oxypurinol]
% of CD69 expression in CD3+ transfectants, Concentration 2 [2]: 22.9% | % of CD69 expression in CD3+ transfectants, Concentration 3 [2]: 39.6% | % of CD69 expression in CD3+ transfectants, Concentration 2 [3]: 5.0% | % of CD69 expression in CD3+ transfectants, Concentration 3 [3]: 5.75%

Cc1cc(NS(=O)(=O)c2ccc(N)cc2)no1 [Sulfamethoxazole]
% of CD69 expression in CD3+ transfectants, Concentration 2 [2]: 1.3% | % of CD69 expression in CD3+ transfectants, Concentration 3 [2]: 1.4%

Daratumumab
GVHD development, higher regimen (human CD38+CD8+ T cells; [6]): failed to prevent GVDH development | T cell expansion, higher regimen (human CD38+CD8+ T cells; [6]): transiently inhibited T cell expansion | expansion of human cells (ratio of humanization) (human CD38+CD8+ T cells; day 12, 7 days after the initial daratumumab injection, blood (FIG. 8)): transiently inhibited the expansion of human cells | expansion of human cells (ratio of humanization) (human CD38+CD8+ T cells; day 19, 14 days after the initial daratumumab injection): inhibition was lost | development of the GVHD (human CD38+CD8+ T cells; day 28, two-weekly injections, 100 or 300 microg/mouse): failed to hamper the development of the GVHD | human CD38+CD8+ T cell levels in blood (human CD38+CD8+ T cells; murine GVHD model): reduction of human CD8+CD38+ T cell levels in blood; also recorded: reduction of human CD38+CD8+ T cells levels in blood | depletion of CD38+ cells (CD38+ fraction among human CD8+ T cells) (human CD38+CD8+ T cells; two-weekly injections, 100 or 300 microg/mouse, spleen, flow cytometry, 28 days after PBMCs injection (FIG. 7), preliminary experiments): depleted CD38+ cells | depletion of already expanded CD38+ cells (CD8+CD38+ T cells) [5]: acutely depleted the CD38+ cells that have already expanded | depletion of already expanded CD38+ cells (CD8+CD38+ T cells) ([5]; listed as Daratumamub): efficiently depleted | depletion of cytotoxic CD8+CD38+Granzyme B+Granulysin+ T cell subset [5]: acutely depleted | depletion of cytotoxic CD8+CD38+Granzyme B+Granulysin+ T cell subset ([5]; listed as Daratumamub): efficiently depleted | expansion of T cell subsets which do not express CD38 marker ([5]; preventive mode, from day 4 (FIG. 13B)): did not avoid the progressive expansion of some T cell subsets | formation/expansion of cytotoxic CD8+CD38+Granzyme B+Granulysin+ T cell subset ([5]; preventive mode, from day 4): preventing the formation of cytotoxic CD8+CD38+Granzyme B+Granulysin+ T cell subset | formation/expansion of cytotoxic CD8+CD38+Granzyme B+Granulysin+ T cell subset ([5]; preventive mode, from day 4, listed as Daratumamub): strongly inhibited the expansion | accumulation of cytotoxic T cells (total CD8+GranzymeB+Granulysin+) ([5]; preventive mode, from day 4, blood (FIG. 15B)): severely impaired the accumulation of cytotoxic T cells | global T cell expansion (CD4+ and CD8+ T cells/mL blood) ([5]; preventive mode, from day 4, versus control isotype (FIG. 14)): Lower expansion; also recorded: dramatically delayed and impaired the global T cell expansion | formation/expansion of CD4+CD38+ and CD8+CD38+ T cells [5]: efficiently and extensively prevented the formation of CD4+CD38+ and CD8+CD38+ T cells | formation/expansion of CD4+CD38+ and CD8+CD38+ T cells ([5]; listed as Daratumamub): blocked the expansion | depletion of cytotoxic cells expressing the TCRVbeta7.1+ chain (CD8+Vbeta7.1+ T cells) ([5]; preventive mode): strong depletion | depletion of cytotoxic cells expressing the TCRVbeta7.1+ chain (CD8+Vbeta7.1+ T cells) ([5]; preventive mode, listed as Daratumamub): preferentially depleted
